From ChEMBL document CHEMBL1201862, “PubChem BioAssay data set” (2004)
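Protocol summary: plate cells (96-well), add compound at 5 concentrations, incubate 48 h, interpolate endpoints linearly. At the GI50, growth is halved.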 The source made the active and inactive calls. Cut-off read from the data, not from the text of the source: active = GI50 up to about 1.1 µM and inactive = higher. Peptide text beside a SMILES is read from it. * marks the point of attachment. Boc = CC(C)(C)OC(=O)*; OBn = c1ccc(CO*)cc1; Bn = c1ccc(C*)cc1

Tests used:
Assay in all cases: growth of human tumour cells (NCI), 48 h
[1] = tested on: RPMI-8226
[2] = tested on: MDA-N
[3] = tested on: HCC 2998
[4] = tested on: UACC-257
[5] = tested on: COLO 205
[6] = tested on: MOLT-4
[7] = tested on: MDA-MB-435
[8] = tested on: SF-295
[9] = tested on: CAKI-1
[10] = tested on: ACHN
[11] = tested on: SN12C
[12] = tested on: A549
[13] = tested on: NCI-H460
[14] = tested on: SF-268
[15] = tested on: M14
[16] = tested on: HT-29
[17] = tested on: U-251
[18] = tested on: 786-0
[19] = tested on: HL-60

Row | Structure (SMILES) | GI50 [1] | GI50 [2] | GI50 [3] | GI50 [4] | GI50 [5] | GI50 [6] | GI50 [7] | GI50 [8] | GI50 [9] | GI50 [10] | GI50 [11] | GI50 [12] | GI50 [13] | GI50 [14] | GI50 [15] | GI50 [16] | GI50 [17] | GI50 [18] | GI50 [19]
1 | C#Cc1nc(N)c2ncn(C3OC(COS(N)(=O)=O)C(O)C3O)c2n1 (stereo not given) | 0.0172 µM (active) | < 0.0168 µM (active) | < 0.01 µM (active) | < 0.0318 µM (active) | 0.0277 µM (active) | < 0.0181 µM (active) | 0.016 µM (active) | 0.757 µM (active) | 0.0559 µM (active) | < 0.0146 µM (active) | 0.0172 µM (active) | 0.0881 µM (active) | < 0.0193 µM (active) | 0.018 µM (active) | < 0.0426 µM (active) | 0.0233 µM (active) | 0.0213 µM (active) | 0.0367 µM (active) | 
2 | COCCN(CCOC)C(=O)COc1c2cc(C(C)(C)C)cc1Cc1cc(C(C)(C)C)cc(c1OCC(=O)N(CCOC)CCOC)Cc1cc(C(C)(C)C)cc(c1OCC(=O)N(CCOC)CCOC)Cc1cc(C(C)(C)C)cc(c1OCC(=O)N(CCOC)CCOC)Cc1cc(C(C)(C)C)cc(c1OCC(=O)N(CCOC)CCOC)C2 |  | 2.1 µM (inactive) | 2.25 µM (inactive) | 1.01 µM (active) | 0.562 µM (active) | 1.74 µM (inactive) | 2.09 µM (inactive) | 1.54 µM (inactive) |  | 0.817 µM (active) | 0.851 µM (active) | 0.802 µM (active) | 1.12 µM (inactive) | 1.93 µM (inactive) | 1.89 µM (inactive) | 0.908 µM (active) | 0.53 µM (active) | 2.15 µM (inactive) | 1.25 µM (inactive)
3 | CC(C)CC(NC(=O)C(CCC(=O)OCc1ccccc1)NC(=O)OC(C)(C)C)C(=O)NC(COCc1ccccc1)C(=O)NC(Cc1ccccc1)C(=O)O (stereo not given) (Boc-E(OBn)LS(Bn)F-OH; configuration not given here) | > 100 µM (inactive) | > 100 µM (inactive) | > 100 µM (inactive) | > 100 µM (inactive) | > 100 µM (inactive) | > 100 µM (inactive) |  |  |  | > 100 µM (inactive) | > 100 µM (inactive) | > 100 µM (inactive) | > 100 µM (inactive) |  | > 100 µM (inactive) | > 100 µM (inactive) | > 100 µM (inactive) | > 100 µM (inactive) | > 100 µM (inactive)
4 | [O-][S+](Nc1ccccc1)c1ccc(N2CCOCC2)cc1 (stereo not given) | 58.7 µM (inactive) |  | 91.2 µM (inactive) | 34.2 µM (inactive) | 59.6 µM (inactive) | 44.7 µM (inactive) | 32.7 µM (inactive) | > 100 µM (inactive) |  | 65.8 µM (inactive) | > 100 µM (inactive) | 43.9 µM (inactive) | 42.6 µM (inactive) | 15.4 µM (inactive) | > 100 µM (inactive) | 36.3 µM (inactive) | > 100 µM (inactive) | 88.9 µM (inactive) | 53.8 µM (inactive)
5 | O=C(O)c1cc(C(=O)C(=O)c2cc(C(=O)O)c(O)c3ccccc23)c2ccccc2c1O | > 100 µM (inactive) | > 100 µM (inactive) | > 100 µM (inactive) | > 100 µM (inactive) | > 100 µM (inactive) |  | > 100 µM (inactive) | > 100 µM (inactive) | > 100 µM (inactive) | > 100 µM (inactive) | > 100 µM (inactive) | > 100 µM (inactive) | > 100 µM (inactive) | > 100 µM (inactive) | > 100 µM (inactive) | > 100 µM (inactive) | > 100 µM (inactive) | > 100 µM (inactive) | 
6 | COc1ccc(N[C@H](CSc2ccc(C)cc2)c2ccc(F)cc2)cc1 | 23.9 µM (inactive) | 71.1 µM (inactive) | > 100 µM (inactive) | 40 µM (inactive) | > 100 µM (inactive) | 3.23 µM (inactive) | > 100 µM (inactive) | > 100 µM (inactive) | > 100 µM (inactive) | > 100 µM (inactive) | > 100 µM (inactive) | 74.6 µM (inactive) | > 100 µM (inactive) | > 100 µM (inactive) | > 100 µM (inactive) | > 100 µM (inactive) | > 100 µM (inactive) | > 100 µM (inactive) | 
7 | [N-]=[N+]=Nc1ccc(CCN2CCN(c3cccc(C(F)(F)F)c3)CC2)cc1I | 13 µM (inactive) |  |  | 96.8 µM (inactive) | > 100 µM (inactive) | 40.4 µM (inactive) |  | > 100 µM (inactive) | 40.1 µM (inactive) | > 100 µM (inactive) | 49 µM (inactive) | 95.7 µM (inactive) | 62.4 µM (inactive) | > 100 µM (inactive) | > 100 µM (inactive) | 29.4 µM (inactive) | > 100 µM (inactive) | > 100 µM (inactive) | 12.8 µM (inactive)
8 | CCOC(=O)C1(C)C2=CC=C(O2)C(C)(C)C2=CC=C(O2)C(C)(C)C2=CC=C(O2)C(C)(C)C2=CC=C1O2 |  |  | > 100 µM (inactive) | > 100 µM (inactive) | 42.3 µM (inactive) | 53.5 µM (inactive) |  | > 100 µM (inactive) | > 100 µM (inactive) | > 100 µM (inactive) | > 100 µM (inactive) | 42.6 µM (inactive) | > 100 µM (inactive) | > 100 µM (inactive) |  | > 100 µM (inactive) | 48.3 µM (inactive) | > 100 µM (inactive) | 55.3 µM (inactive)
9 | CN1CCN(Cc2nc3c(s2)CCc2sccc2-3)CC1 | > 100 µM (inactive) | 48.6 µM (inactive) | 51.4 µM (inactive) | 79.3 µM (inactive) | > 100 µM (inactive) | 77.8 µM (inactive) | 54.2 µM (inactive) | 73.1 µM (inactive) | 37.7 µM (inactive) | > 100 µM (inactive) | > 100 µM (inactive) | > 100 µM (inactive) | > 100 µM (inactive) | 82.6 µM (inactive) | 28.4 µM (inactive) | 32.7 µM (inactive) | > 100 µM (inactive) | 95.3 µM (inactive) | 
10 | CC(Oc1ccc(Cl)cc1Cl)C(=O)NN1C(=O)CSC1c1ccc(Cl)cc1 (stereo not given) | 35.7 µM (inactive) |  | 54.8 µM (inactive) | 48.2 µM (inactive) | > 100 µM (inactive) | 21.7 µM (inactive) | > 100 µM (inactive) | 50.6 µM (inactive) | 18.9 µM (inactive) | 42.5 µM (inactive) | 20 µM (inactive) | 31 µM (inactive) | > 100 µM (inactive) | 88.7 µM (inactive) | 47.1 µM (inactive) | 70.1 µM (inactive) | 40.3 µM (inactive) | 53.6 µM (inactive) | 35.3 µM (inactive)
11 | O=C(NC/C(Cl)=C/Cl)Nc1cccc2c1CCCC2 | 49.8 µM (inactive) | > 100 µM (inactive) | > 100 µM (inactive) | 58.9 µM (inactive) | > 100 µM (inactive) | 29.5 µM (inactive) | > 100 µM (inactive) | > 100 µM (inactive) | 86.9 µM (inactive) | > 100 µM (inactive) | > 100 µM (inactive) | > 100 µM (inactive) | 83.8 µM (inactive) | > 100 µM (inactive) | > 100 µM (inactive) | 38.5 µM (inactive) | > 100 µM (inactive) | 89.3 µM (inactive) | 
12 | CCOC(=O)C1=C(Nc2ccc(Br)cc2)OC/C1=N\NC(=O)c1ccccc1O | 15 µM (inactive) |  | 20.3 µM (inactive) | 23 µM (inactive) | 38.9 µM (inactive) | 11.4 µM (inactive) |  | 14.2 µM (inactive) | 6.49 µM (inactive) | 5.13 µM (inactive) | 52.4 µM (inactive) | 4.06 µM (inactive) | 12.9 µM (inactive) | 12 µM (inactive) | 23.5 µM (inactive) | 40.4 µM (inactive) | 9.23 µM (inactive) | 15 µM (inactive) | 20.4 µM (inactive)
13 | CC1(C)SC2C(C(=O)O)N=C(Cc3ccccc3)N2C1C(=O)O (stereo not given) | 46.8 µM (inactive) | 49 µM (inactive) | 25.3 µM (inactive) | 21.9 µM (inactive) | > 100 µM (inactive) | > 100 µM (inactive) | 40.7 µM (inactive) | 31.7 µM (inactive) | 43.7 µM (inactive) | 38.9 µM (inactive) | 35 µM (inactive) | 31.8 µM (inactive) | 45.1 µM (inactive) | 30.1 µM (inactive) | 37.2 µM (inactive) | 13.6 µM (inactive) | 32.7 µM (inactive) | 19.8 µM (inactive) | 
14 | O=S(=O)(Nc1nccs1)c1ccc([As](=O)(O)O)cc1 | > 100 µM (inactive) |  |  |  | > 100 µM (inactive) | > 100 µM (inactive) | > 100 µM (inactive) | > 100 µM (inactive) | > 100 µM (inactive) | > 100 µM (inactive) | > 100 µM (inactive) | > 100 µM (inactive) | > 100 µM (inactive) | > 100 µM (inactive) | > 100 µM (inactive) | > 100 µM (inactive) | > 100 µM (inactive) | > 100 µM (inactive) | > 100 µM (inactive)
15 | CN(C)CCCNC1=C(Cl)C(=O)c2c(O)ccc(O)c2C1=O |  | 1.85 µM (inactive) | 1.79 µM (inactive) | 1.95 µM (inactive) | 1.49 µM (inactive) | 2.58 µM (inactive) | 1.6 µM (inactive) | 1.73 µM (inactive) | > 10 µM (inactive) | 6.1 µM (inactive) | 1.81 µM (inactive) | 1.66 µM (inactive) | 2.13 µM (inactive) | 1 µM (active) | 1.51 µM (inactive) | 2.17 µM (inactive) | 1.74 µM (inactive) | 1.36 µM (inactive) | 
